# Source: patent US10683273B2, “Compounds as DNA probes, methods and applications thereof” (JAWAHARLAL NEHRU CENTRE FOR ADVANCED SCIENTIFIC RESEARCH, priority 2015, dated 2020)
# How the values were obtained:
# [1] = system: MCF-7 cells; assay: Photostability assay by confocal fluorescence microscopy; format: cell-based; details: 2 μM
# Method: MCF-7 Cells are propagated on 20 mm cover slips in a 6-well plate in DMEM medium supplemented with 10% fetal bovine serum at about 37° C. in a humidified atmosphere containing 5% CO2 till 80% confluency is achieved. Cells are incubated for a duration of about 60 min with probe QCy-DT (resuspended in Mili-Q water) at 2 μM concentration in a humidified CO2 incubator at about 37° C. Following treatment, the photostability of QCy-DT is measured by continuous scanning using OLYMPUS FV1000 confocal fluorescence microscope, under 568 nm line of an Argon ion laser for different time durations of about 10 sec, 120 sec and 300 sec. Olympus Fluoview software is used to quantitatively investigate the intensity of signals of QCy-DT at zero time points and after photo bleaching. The data is plotted with mean and standard error.
# [2] = system: d(ATAT)5; assay: Switch-on NIR-fluorescence enhancement with DNA; format: binding
# Method: All the chemicals, reagents, single-stranded oligos (dA20, dT20, dG20, dC20), self-complementary oligos {d(ATAT)5, (D1)mix, Drew-AT, Calf-Thymus DNA (CT-DNA), (DM1, DM2, DM3, DM4, DM5, DM6 and DM7)}, RNA, were purchased from Sigma-Aldrich. ^1H and ^13C NMR spectra were recorded on a Bruker AV-400 MHz spectrometer with chemical shifts reported as parts per million (ppm) (in DMSO-d6, tetramethylsilane as an internal standard) at 20° C. UV-vis absorption and emission spectra were measured in quartz cuvettes of 1 cm path length. High resolution mass spectra (HRMS) were obtained on Agilent Technologies 6538 UHD Accurate-Mass Q-TOF LC/MS spectrometer. All biophysical studies (UV-vis, fluorescence and Cirular dichroism) are carried out at the concentration 0-5 μM of probe, volume=500 μL, temperature=25° C. and time of incubation=2 minutes. […]
# The UV-vis absorption and emission spectra are recorded on Agilent Technologies Cary series UV-vis-NIR absorbance and Cary eclipse fluorescence spectrophotometers, respectively. […] Absorption is monitored at 260 nm with regular 5° C. intervals. Melting temperatures (Tm) of DNA samples are calculated from the first derivatives of the absorption vs. temperature curves (thermal denaturation or melting curves) obtained by monitoring at 260 nm. […]
# [3] = system: (D1)mix; assay: Fluorescence quantum yield in presence of DNA; format: binding
# Method: (§1) Cresyl violet perchlorate in ethanol (ϕ=0.54) is used as the standard for the fluorescence quantum yield calculation using the absorption of the test sample. The emission spectral area is obtained in the 550-800 nm regions. Dilute solutions (10^−6 M) are used to minimize reabsorption effects of the dyes. Quantum yields are determined using the following equation, ϕs=ϕr(Fs/Fr)×(Ar/As)×(ns^2/nr^2)
# (§2) Where, ϕr and ϕs are the quantum yield of reference and sample respectively, Fr and Fs are the integrated intensities (areas) of standard and sample spectra, nr and ns are the refractive indices of the reference and sample solution, Ar and As are the absorbance intensities of reference and sample respectively.
# [4] = system: Drew-AT; assay: Fluorescence quantum yield in presence of DNA; format: binding
# Method: as §1, §2
# [5] = system: d(ATAT)5; assay: Fluorescence quantum yield in presence of DNA; format: binding; details: in presence of D(ATAT)5
# Method: as §1, §2
# [6] = system: (A-T)20; assay: Fluorescence quantum yield in presence of DNA; format: binding; details: in presence of (A-T)20
# Method: as §1, §2
# [7] = system: 5′-TAATTA-3′; assay: Fluorescence enhancement, local variations 5′-X(AATT)Y-3′; format: binding; details: folds lesser than 5′-AATT-3′ sequence
# Method: (§3) All the chemicals, reagents, single-stranded oligos (dA20, dT20, dG20, dC20), self-complementary oligos {d(ATAT)5, (D1)mix, Drew-AT, Calf-Thymus DNA (CT-DNA), (DM1, DM2, DM3, DM4, DM5, DM6 and DM7)}, RNA, were purchased from Sigma-Aldrich. ^1H and ^13C NMR spectra were recorded on a Bruker AV-400 MHz spectrometer with chemical shifts reported as parts per million (ppm) (in DMSO-d6, tetramethylsilane as an internal standard) at 20° C. UV-vis absorption and emission spectra were measured in quartz cuvettes of 1 cm path length. High resolution mass spectra (HRMS) were obtained on Agilent Technologies 6538 UHD Accurate-Mass Q-TOF LC/MS spectrometer. All biophysical studies (UV-vis, fluorescence and Cirular dichroism) are carried out at the concentration 0-5 μM of probe, volume=500 μL, temperature=25° C. and time of incubation=2 minutes. HeLa cells and MCF7 cells used in the biological studies are obtained from “Molecular reproduction, development and genetics lab, Indian institute of science, Bangalore, India”
# (§4) Stock solutions of QCy-DT are prepared in double-distilled (dd) water in the order of 10^−3 M and stored at about −10° C. […]
# (§5) The UV-vis absorption and emission spectra are recorded on Agilent Technologies Cary series UV-vis-NIR absorbance and Cary eclipse fluorescence spectrophotometers, respectively. […] Absorption is monitored at 260 nm with regular 5° C. intervals. Melting temperatures (Tm) of DNA samples are calculated from the first derivatives of the absorption vs. temperature curves (thermal denaturation or melting curves) obtained by monitoring at 260 nm.
# (§6) To understand finer details of the interactions of QCy-DT with local variations around 5′-AATT-3′ sequence in the minor groove of DNA duplex, fluorescence studies are performed in the presence of DNA containing core hexanucleotide sequences such as 5′-X(AATT)Y-3′ (where X=A/T/G/C and Y is complementary base of X) (FIG. 5a). […] Remarkably, enormous fluorescence enhancement is observed in the presence of DNA with 5′-AAATTT-3′ core, which is ˜4-folds higher than the DNA with 5′-AATT-3′ core sequence alone. […]
# [8] = system: DNA containing 5′-CAATTG-3′ core; assay: as above; format: binding
# Method: as §3, §4, §5, §6
# [9] = Fluorescence quantum yield in absence of DNA; format: physicochemical
# Method: as §1, §2
smiles,measurement,setting,value
"C[n+]1c(/C=C/c2ccc(O)c(/C=C/c3sc4ccccc4[n+]3C)c2)sc2ccccc21 [QCy-DT, quinone cyanine-dithiazole]",remainder fluorescence intensity,"[1]; MCF-7, 120-second argon ion laser excitation at 568 nm",~80%
same,fluorescent signal intensity,"[1]; MCF-7, 300 sec excitation at 568 nm",~50%
same,fluorescence enhancement,[2],~54 fold
same,Quantum Yield (ΦF),[3],0.08
same,Quantum Yield (ΦF),[4],~0.25
same,Quantum Yield (ΦF),[5],0.08
same,Quantum Yield (ΦF),[6],~0.32
same,"fluorescence enhancement with T at X in 5′-X(AATT)Y-3′, lesser than 5′-AATT-3′",[7],~1.5 fold
same,fluorescence enhancement,[8],very weak fluorescence enhancement
same,Quantum Yield (ΦF),[9]; Glycerol,~0.07
same,Quantum Yield (ΦF),"[9]; Tris-HCl buffer 100 mM, pH 7.4, probe alone",0.0039
